Measurements from paper PMC9313812, “The Pseudo‐Natural Product Rhonin Targets RHOGDI” (Angewandte Chemie (International Ed. in English), 2022).
Like-named read-outs stand apart in the source and are kept apart here.

Test system: C3H/10T1/2 cells
Test: Osteoblast differentiation assay (ODA): purmorphamine-induced osteogenesis, alkaline phosphatase luminescence readout
Type: cell-based, mouse
Parameters: key to Osteogenesis IC50: Compounds are marked inactive when no inhibition was observed at the highest test concentration of 30 µM
Conditions: for Osteogenesis IC50: Table S7, mean ± SD, highest test concentration 30 µM; for Osteogenesis IC50 / IC50: 1.5 µM purmorphamine, 96 h, n=3; for IC50: Rac, Cdc42 and ROCK inhibitors, read-out: Osteogenesis IC50 ± SD; for Inhibition of Hh-/purmorphamine-induced osteogenesis (in words): C3H/10T1/2 cells
Protocol: Supplementary Table S7. Inhibition of osteogenesis assay. C3H10T1/2 cells were incubated with 1.5 µM purmorphamine and compounds or DMSO as a control for 96 h. The activity of alkaline phosphatase was assessed by means of a luminescence readout. Values for cells, which were treated with DMSO and purmorphamine, were set to 100% and data were measured in […]
concentration of 30 µM. All data are mean values of three independent experiments (n = 3) ± […]
Compound Osteogenesis IC50
(1 picture or pasted object on this page, not shown here)
NIH/3T3 cells were obtained from DSMZ, Germany (DSMZ ACC 59) and were cultured in DMEM (high glucose) supplemented with 10% heat-inactivated FCS, 2 mM L -glutamine and 1 mM sodium pyruvate. Shh -LIGHT2 cells (NIH/3T3 cells stably transfected with a Gli-responsive firefly luciferase reporter plasmid and a pRL-TK constituitive Renilla luciferase expression vector)[4] were cultured in the same culturing medium supplemented with 400 μg ml −1 G418 and 150 μg ml −1 Zeocin as selecting agents. The murine osteoblasts C3H/10T1/2 (ATCC CCL-226) were obtained from ATCC, USA and were cultured in DMEM (high glucose) supplemented with 10% heat-inactivated FCS, 6 mM L -glutamine, 1 mM sodium pyruvate. HEK293T cells (ATCC, England) were grown in DMEM containing 10% FBS, 100 U ml −1 penicillin and 0.1 mg ml −1 streptomycin. All cell lines were maintained at 37 °C and 5% CO 2 in a humidified atmosphere. All the cell lines were regularly assayed for mycoplasma and were confirmed to be mycoplasma-free. Transfection of DNA constructs and siRNAs were performed using FuGENE HD (Promega), Lipofectamine® LTX (Invitrogen) and DharmaFECT™ (GE Healthcare) transfection reagent according to the manufacturer’s […]
Osteoblast differentiation assay
The osteoblast differentiation assay was performed by the Compound Management and Screening Center (COMAS) in Dortmund, Germany. C3H/10T1/2 cells were seeded (800 per well) in white 384-well plates or (6000 per well) in 96-well plates. After incubation for 16 h, compounds or DMSO were added to the cells using the acoustic nanoliter dispenser ECHO 520 (Labcyte) and osteogenesis was induced with 1.5 µM purmorphamine. Plates were incubated for 96 h at 37 °C and 5% CO2. Alkaline phosphatase activity was measured by replacing the medium with osteogenesis-lysis buffer (lysis buffer: 100 mM Tris pH 9.5, 250 mM NaCl, 25 mM MgCl2, 1% Triton X-100, sterile filtered) containing 1:100 chemiluminescent substrate CDP-Star® (Promega, 384-well plates: 35 µL, 96-well plates: 50 µL) for one hour in the dark at 25 °C. In 384-well plates, the luminescence was monitored using the Paradigm plate reader (Molecular Devices, USA), whereas Spark plate reader (Tecan, Austria) was used to measure luminescence in 96-well plates. Dose-response analyses were performed for all hit compounds […]
using a three-fold dilution series starting from a concentration of 30 μM. Half-maximal inhibitory concentrations (IC50) were calculated using the Quattro software suite (Quattro Research, Planegg, Germany) or GraphPad Prism 7 (GraphPad, USA).
The effect of test compounds on the viability of C3H/10T1/2 cells was determined by CellTiter-Glo Luminescence cell viability assay (Promega). Cells were treated as described for the osteogenesis assay prior to addition of the CellTiter-Glo® reagent according to manufacturer’s protocol. Compounds causing at least a 50% reduction in the osteogenesis assay and retaining cell viability of at least 80% were considered as hits. Dose-response analyses were performed for all hit compounds using a three-fold dilution series starting from a concentration of 30 μM. Half-maximal inhibitory concentrations (IC50) were calculated using the Quattro software suite (Quattro Research GmbH). […]

[1] = Mus musculus, C3H 10T1/2, Table S13

SMILES	Osteogenesis IC50	further results
CCCN1C(=O)C2C(C1=O)C1(c3ccc(Br)cc3)NC2(C(=O)OC)C2C(=O)N(c3ccccc3)C(=O)C21 (stereo not drawn) [5e]	inactive	–
CCn1c2ccccc2c2cc(Nc3ccnc(NCCCN4CCOCC4)n3)ccc21 [EHop-016, reference compound]	–	IC50 (Table S13): 881 ± 80 nM
COC(=O)C1(C2CC(=O)N(c3ccccc3)C2=O)N=C(c2ccc(C(C)(C)C)cc2)C2C(=O)N(C)C(=O)C21 (stereo not drawn) [6d]	inactive	–
COC(=O)C12NC(c3ccc(C)cc3)(C3C(=O)N(C)C(=O)C31)C1C(=O)N(c3ccccc3)C(=O)C12 (stereo not drawn) [5b]	inactive	–
COC(=O)c1ccc(C23NC(C(=O)OC)(C4C(=O)N(C)C(=O)C42)C2C(=O)N(c4ccccc4)C(=O)C23)cc1 (stereo not drawn) [5c]	inactive	–
COC(=O)C1(C2CC(=O)N(c3ccccc3)C2=O)N=C(c2cccc(OC)c2)C2C(=O)N(C)C(=O)C21 (stereo not drawn) [6e]	inactive	–
COC(=O)C12NC(c3ccc(Br)cc3)(C3C(=O)N(C)C(=O)C31)C1C(=O)N(c3ccccc3)C(=O)C12 (stereo not drawn) [5a]	inactive	–
Cc1cncc2cccc(S(=O)(=O)N3CCCNC[C@@H]3C)c12 [H-1152, reference compound]	–	IC50 (Table S13): 2870 nM
Cc1cc(C)nc(NS(=O)(=O)c2ccc(NC(=S)NC(=O)COc3ccc(Br)cc3Cl)cc2)n1 [ZCL278, reference compound]	–	Osteogenesis, activity at 2 µM (Table S13, 2 µM, DMSO + purmorphamine = 100%): 75%
COC(=O)C1(C2CC(=O)N(c3ccccc3)C2=O)N=C(c2ccc(Br)cc2)C2C(=O)N(C)C(=O)C21 (stereo not drawn) [6a]	inactive	–
COC(=O)C1(C2CC(=O)N(c3ccccc3)C2=O)N=C(c2ccc(F)cc2)C2C(=O)N(C)C(=O)C21 (stereo not drawn) [6c]	inactive	–
O=c1cc(CN2CCOCC2)occ1OCCCCCSc1ccnc2cc(C(F)(F)F)ccc12 [EHT 1864, reference compound]	–	IC50 (Table S13): > 2000 nM
COC(=O)C12NC(c3ccc(Cl)cc3)(C3C(=O)N(C)C(=O)C31)C1C(=O)N(c3ccccc3)C(=O)C12 (stereo not drawn) [5d]	inactive	–
CN(C)CCOc1cc(-c2cn[nH]c2)ccc1NC(=O)C1COc2ccccc2O1 (stereo not drawn) [SR-3677, reference compound]	–	IC50 [1]: 1720 ± 100 nM
COC(=O)C12NC(c3ccc(Br)cc3)(C3C(=O)N(c4ccccc4)C(=O)C31)C1C(=O)N(C3CCCCC3)C(=O)C12 (stereo not drawn) [5f]	inactive	–
COC(=O)C1(C2CC(=O)N(c3ccccc3)C2=O)N=C(c2ccc(C(F)(F)F)cc2)C2C(=O)N(C)C(=O)C21 (stereo not drawn) [6b]	inactive	–
COc1cc(C2=NC(C)=C(C(=O)Nc3ccc4[nH]ncc4c3)C(c3ccc(Cl)cc3F)N2)ccn1 (stereo not drawn) [GSK534911A, reference compound]	–	IC50 [1]: 1550 ± 500 nM

Further lines, with some results ahead:

Osteogenesis IC50	SMILES	further results
inactive	COC(=O)C=C(C(=O)OC)C1(C(=O)OC)N=C(c2ccc(Br)cc2)C2C(=O)N(c3ccccc3)C(=O)C21 (stereo not drawn) [7i]	–
inactive	COC(=O)C=C(C(=O)OC)C1(C(=O)OC)N=C(c2ccc(Br)cc2)C2C(=O)N(C)C(=O)C21 (stereo not drawn) [7h]	–
inactive	COC(=O)C1(C(CC(=O)c2ccc(Br)cc2)c2ccccc2)N=C(c2ccc(Br)cc2)C2C(=O)N(C)C(=O)C21 (stereo not drawn) [7b]	Inhibition of Hh-/purmorphamine-induced osteogenesis (in words): abolished activity
inactive	COC(=O)[C@@]1([C@H](CC(=O)c2ccc(Br)cc2)c2ccc(C(=O)NCCOCCOCCNC(=O)OC(C)(C)C)cc2)N=C(c2ccc(Br)cc2)[C@H]2C(=O)N(C)C(=O)[C@H]21 [S10b]	–
inactive	COC(=O)C1(CCC(C)=O)N=C(c2ccc(Br)cc2)C2C(=O)N(c3ccccc3)C(=O)C21 (stereo not drawn) [7f]	Inhibition of Hh-/purmorphamine-induced osteogenesis (in words): activity was lost
